From patent US8883765B2, “Anti-cytomegalovirus activity of artemisinin-derived dimers” (The John Hopkins University, priority 2009, dated 2014)
Like-named read-outs stand apart in the source and are kept apart here.

What was measured:
[1] = test system: Human Foreskin Fibroblasts (HFF)
Experimental: (§2) Cellular cytotoxicity was determined using CellTiter-Glo® Luminescent Cell Viability Assay (Promega, Madison, Wis.). The assay determines the number of viable cells in culture based on quantification of the ATP present.
(§3) For EC50 and CC50 reported values represent the mean and SD of data derived from at least five independent experiments performed in triplicates.

[2] = biological target: pp 28-luciferase expressing CMV (Towne); assay: microbe, parasite or virus in culture; format: cell-based, human CMV; details: for inhibition of CMV replication: different batches and passages of HFF, and HEL cells
Text: A recombinant virus expressing luciferase reporter gene under the control of UL99 (pp 28) late promoter was generated by insertion of the reporter gene between the US9 and US10 ORFs in the Towne genome. […] Ahn J H, Hayward G S. Disruption of PML-associated nuclear bodies by IE1 correlates with efficient early stages of viral gene expression and DNA replication in human cytomegalovirus infection. Virology. 2000; 274:39-55.
(§1) Towne-GFP, Towne-luciferase, and SB viruses were used in these assays. HFF or HEL were grown to subconfluent monolayers and infected with the CMV viruses at MOI 0.1 to 3. […] J Mol Med. 2002; 80:233-242. The concentration of each compound was calculated and adjusted by volume such that it was constant throughout the experiment. Following 90 minute incubation, media was replaced with fresh media containing the drug used. Infected and treated cells were incubated at 37° C. in a 5% CO2 atmosphere for 3-10 days depending on the virus and the anti-viral assay. The recombinant luciferase-expressing virus was incubated for 72 hours, the GFP virus was incubated for 5 days, and the clinical isolate for 10 days. All experiments were subsequently repeated with compounds added to wells just after viral inoculation.

[3] = test system: CMV IE1 protein expression; assay: Western blot for CMV immediate early protein IE1 (and GFP); format: cell-based, human CMV; parameters: expression of IE1 and GFP: dose or concentration left out as unconfirmed; details: for expression of IE1 and GFP: Towne-GFP, artemisinin; for IE1 expression: clinical isolate SB, MOI=1
Experimental: Monoclonal antibodies to CMV immediate early proteins IE-1 and IE-2 (MAb810) and to cellular β-actin were purchased from Millipore (Billerica, Mass.). Confluent cells were infected with CMV in the presence of artemisinin compounds. At the indicated times cells were harvested in sample buffer (RIPA buffer, Tris 50 mM, Nacl 150 mM, SDS 0.1%, Na Deoxycholate 0.5%, NP40 1%, and protease inhibitor cocktail), boiled and loaded onto SDS-PAGE. Proteins were separated by electrophoresis and transferred to nitrocellulose membrane. After blocking, blots were probed with primary antibody (1:3,000) overnight at 4° C. in phosphate-buffered saline, and Tween. After washing 3 times, blots were probed with HRP-conjugated anti-mouse (Sigma), 1:5,000 for 1 hour at room temperature. Blots were washed three times in phosphate-buffered saline/Tween, and then developed by enhanced chemiluminescence according to manufacturer protocol.
The expression of CMV immediate early (IE) protein was tested by western blot to determine whether artemisinins' inhibition of CMV replication occurs early in the virus life cycle. […] Further evidence for the early effect of artemisinins on IE1 protein expression was obtained with the clinical isolate (SB, FIG. 5b). […] Stinski M F. Sequence of protein synthesis in cells infected by human cytomegalovirus: early and late virus-induced polypeptides. J Virol. 1978; 26:686-701.

[4] = test system: GFP-tagged CMV (Towne-GFP); assay: GFP-tagged CMV replication in pretreated HFF; format: cell-based, human CMV; details: pretreatment of HFF with different concentrations; data not shown
Experimental: The CMV strains used for infections were the highly-passaged Towne virus, and a clinical isolate obtained from the urine of a neonate with congenital CMV infection (SB) and passaged once in tissue culture. […] Initial experiments were performed using a recombinant human CMV-green fluorescent protein (GFP) virus, derived from Towne strain. […] J Virol.
as §1

[5] = test system: Human Foreskin Fibroblasts (HFF); assay: Cellular cytotoxicity, CellTiter-Glo Luminescent Cell Viability Assay; details: drug concentration that leads to 50% cellular cytotoxicity; mean and SD, at least five experiments in triplicates
Experimental: as §2, §3

[6] = test system: CMV clinical isolates; details: 11.1 μM; cited from earlier work
[7] = test system: Toxoplasmosis (Toxoplasma gondii); assay: Anti-toxoplasmosis activity of supernatants of CMV infected cells; format: cell-based; details: supernatants of CMV infected cells at 3-5 days post infection
Experimental: To confirm that the difference in anti-CMV activity between monomers and dimers was not a result of instability of the monomers in tissue culture, the anti-toxoplasmosis activity of these compounds was determined in the supernatants of CMV infected cells at 3-5 days post infection. […] Antimicrob Agents Chemother. 2006; 50:4206-4208.

[8] = test system: recombinant luciferase-expressing CMV; assay: Plaque reduction assay in human embryonic lung cells (HEL); format: cell-based, human CMV; details: 10 μM, luciferase virus
Experimental: For plaque reduction assay, human embryonic lung cells were seeded into six-well plates and incubated at 37° C. one day prior to infection with the recombinant luciferase-expressing CMV. […] The virus was diluted to a desired concentration which gave 50-60 plaques per well. Medium was aspirated from the wells, and 0.2 ml of virus suspension was added to each well in triplicates. Plates were incubated for 90 minutes with shaking every 10 min, thereafter drugs were added and a methylcellulose overlay applied to each well. After incubation for 10 days, cells were stained with crystal violet. The stain was aspirated, wells were washed with phosphate-buffered saline, and plaques were counted.

## C[C@H]1[C@@H](CCC(=O)Nc2ccc(F)cc2)O[C@@H]2OC3(C)CC[C@H]4[C@H](C)CC[C@@H]1[C@@]24OO3 [Artefanilide (3), Artefanilide]
[1]
  CC50: 44.9 ± 3.4 µM
[2]; Table 1, 50% virus inhibition, mean and SD, at least five experiments in triplicates, read-out: EC50
  EC50: 8.1 ± 2.2 µM

## C[C@@H]1CC[C@H]2[C@@H](C)C(=O)O[C@@H]3O[C@@]4(C)CC[C@@H]1[C@]32OO4 [Artemisinin (1), Artemisinin]
[3]; MOI of 0.1
  expression of IE1 and GFP: undetectable
[3]; MOI of 0.5
  expression of IE1 and GFP: decreased
[4]
  CMV replication: dose-dependent reduction

## C[C@H]1[C@H](OC(=O)CCC(=O)O)O[C@@H]2O[C@@]3(C)CC[C@H]4[C@H](C)CC[C@@H]1[C@@]24OO3 [Artesunate (2d), Artesunate]
[5]
  CC50: 77.5 ± 14.4 µM
[6]
  in-vitro inhibition of clinical isolates: 50-80%
[2]; Human betaherpesvirus 5
  EC50: 18.5 ± 5.2 µM

## C[C@H]1[C@@H](CC(COP(=O)(Oc2ccccc2)Oc2ccccc2)C[C@H]2O[C@@H]3O[C@@]4(C)CC[C@H]5[C@H](C)CC[C@@H]([C@H]2C)[C@@]35OO4)O[C@@H]2O[C@@]3(C)CC[C@H]4[C@H](C)CC[C@@H]1[C@@]24OO3 (stereo partly drawn) [Dimer isobu-OP(O)(OPh)2]
[2]; FIGS. 7 and 8
  rank as CMV inhibitor among eight representative dimers: most potent
[2]; eight representative dimers, FIGS. 7 and 8
  selectivity index: > 1000

## C[C@H]1[C@@H](CC(CO)C[C@H]2O[C@@H]3O[C@@]4(C)CC[C@H]5[C@H](C)CC[C@@H]([C@H]2C)[C@@]35OO4)O[C@@H]2O[C@@]3(C)CC[C@H]4[C@H](C)CC[C@@H]1[C@@]24OO3 (stereo partly drawn) [Dimer primary alcohol (4)]
[7]
  EC50: 0.4 ± 0.15 µM
[3]; SB, MOI=3, prior to onset of DNA replication
  time post infection at which inhibition of IE1 expression was observed (as early as): 12 h
[3]; 1-μM, 24 and 48 hr
  IE1 expression: significantly reduced
[2]
  inhibition of CMV replication: dramatic inhibition

## C[C@H]1[C@@H](CC(C[C@H]2O[C@@H]3O[C@@]4(C)CC[C@H]5[C@H](C)CC[C@@H]([C@H]2C)[C@@]35OO4)CS(=O)(=O)c2ccc(COC(=O)N(C)C)cc2)O[C@@H]2O[C@@]3(C)CC[C@H]4[C@H](C)CC[C@@H]1[C@@]24OO3 (stereo partly drawn) [Dimer sulfone carbamate (6)]
[2]
  inhibition of CMV replication: dramatic inhibition

## Nc1nc(O)c2ncn(COC(CO)CO)c2n1 [GCV, Ganciclovir]
[8]
  reduction in plaque formation: 80%
[3]; 10 μM
  IE1 expression: not affected
[2]; 10 μM, FIG. 2
  CMV inhibition compared with the four monomers: more potent
